This passage reports CFU reduction and bacterial viability results from patent US12606834B2 (priority 2015, dated 2026).

The assay relates to E. coli R182. The assay is classed as cell-based, Escherichia coli. The source says:
We compared the combination of P1 CRISPR phage (targeting ftsA) and ciprofloxacin to the use of P1 CRISPR phage alone for killing E. coli R182, a ciprofloxacin-resistant strain (FIG. 10A). Ciprofloxacin (Cip) dose was the highest therapeutically relevant concentration (4 micrograms per milliliter) to which the R182 strain is known to be resistant. E. coli were infected with CRISPR phage targeting the E. coli ftsA gene at a range of multiplicities of infection (MOI).
In addition, the combination of P1 CRISPR phage (targeting ftsA) and imipenem, a standard of care antibiotic in E. coli infections, was compared with P1 CRISPR phage alone for killing E. coli R182, a ciprofloxacin-resistant strain (FIG. 10B). […] The E. coli cells were infected with CRISPR phage at a range of MOI.
Finally, we compared the loss of viable E. coli R182 cells following exposure to imipinem, P1 CRISPR phage targeting ftsA, or a combination of both (FIG. 10C). For relevant conditions (n=3 for each condition), imipenem was held at a constant dose (LD50 for E. coli R182) and CRISPR phage was held to a MOI of 2.

As to `C[C@@H](O)[C@H]1C(=O)N2C(C(=O)O)=C(SCCN=CN)C[C@H]12` [Imipenem, imipenem], the CFU reduction (constant dose (the LD50 for E. coli R182), FIG. 10B) is reported as 0.3 log.
On to `O=C(O)c1cn(C2CC2)c2cc(N3CCNCC3)c(F)cc2c1=O` [ciprofloxacin], for which the bacterial viability entry (ciprofloxacin alone, 4 micrograms per milliliter, FIG. 10A) was “did not reduce bacterial viability”.
